Measured values published in PMC4301037, “Identification and Structure–Function Analysis of Subfamily Selective G Protein-Coupled Receptor Kinase Inhibitors” (ACS Chemical Biology, 2014).
Where two headings read alike, the source gives them in different places.

How the values were obtained:
224 kinases = tested on: 224 kinases; design: method as in ChEMBL database; settings: ref ChEMBL database, cited from earlier work
human GRK2S670A = biological target: T1, human GRK2S670A (Homo sapiens, UniProt P25098, S670A); experiment: Primary DSF (differential scanning fluorimetry) inhibitor screen, GRK2; assay type: binding; settings: 10 μM compound; for ΔTm, primary screen, GRK2 / ΔTm at 10 µM: 2 μM kinase, relative to DMSO control; for ΔTm at 10 µM: read-out: ΔTm, primary screen, GRK2; for rank in the primary screen, GRK2: rank ordering of compounds in primary DSF screen
T1 construct: when using full-length kinases as the receptor[37] instead of isolated kinase domains; made in house
T1 sequence (P25098 1-689 S670A): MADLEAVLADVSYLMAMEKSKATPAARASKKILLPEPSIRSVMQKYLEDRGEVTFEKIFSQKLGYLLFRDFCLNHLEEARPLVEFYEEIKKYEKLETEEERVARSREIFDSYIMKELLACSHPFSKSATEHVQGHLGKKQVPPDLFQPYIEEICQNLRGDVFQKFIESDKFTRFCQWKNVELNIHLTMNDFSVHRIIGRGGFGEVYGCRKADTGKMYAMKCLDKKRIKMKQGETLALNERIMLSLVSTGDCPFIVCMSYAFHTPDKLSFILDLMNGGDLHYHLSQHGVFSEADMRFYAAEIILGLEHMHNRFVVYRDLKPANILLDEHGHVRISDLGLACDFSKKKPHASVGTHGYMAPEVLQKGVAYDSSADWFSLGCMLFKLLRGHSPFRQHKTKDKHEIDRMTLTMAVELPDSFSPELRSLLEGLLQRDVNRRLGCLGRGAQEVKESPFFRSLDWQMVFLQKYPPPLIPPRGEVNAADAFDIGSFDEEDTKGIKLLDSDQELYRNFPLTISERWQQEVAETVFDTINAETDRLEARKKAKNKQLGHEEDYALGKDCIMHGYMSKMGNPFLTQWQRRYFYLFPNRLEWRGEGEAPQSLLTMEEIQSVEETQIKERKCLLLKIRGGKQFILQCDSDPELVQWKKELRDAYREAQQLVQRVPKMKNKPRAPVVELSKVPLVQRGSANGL

GRK1 [1] = biological target: T2, GRK1 (Bos taurus, UniProt P28327); experiment: DSF retest (confirmation), GRK1; assay type: binding, bovine; settings: for GRK1 Tm: 0.2 mg mL^–1 kinase; for GRK1 ΔTm: relative to intrinsic melting point of the kinase
T2 construct: Bovine GRK1_1–535, bovine and human GRK2S670A; made in house
T2 sequence (P28327 1-535): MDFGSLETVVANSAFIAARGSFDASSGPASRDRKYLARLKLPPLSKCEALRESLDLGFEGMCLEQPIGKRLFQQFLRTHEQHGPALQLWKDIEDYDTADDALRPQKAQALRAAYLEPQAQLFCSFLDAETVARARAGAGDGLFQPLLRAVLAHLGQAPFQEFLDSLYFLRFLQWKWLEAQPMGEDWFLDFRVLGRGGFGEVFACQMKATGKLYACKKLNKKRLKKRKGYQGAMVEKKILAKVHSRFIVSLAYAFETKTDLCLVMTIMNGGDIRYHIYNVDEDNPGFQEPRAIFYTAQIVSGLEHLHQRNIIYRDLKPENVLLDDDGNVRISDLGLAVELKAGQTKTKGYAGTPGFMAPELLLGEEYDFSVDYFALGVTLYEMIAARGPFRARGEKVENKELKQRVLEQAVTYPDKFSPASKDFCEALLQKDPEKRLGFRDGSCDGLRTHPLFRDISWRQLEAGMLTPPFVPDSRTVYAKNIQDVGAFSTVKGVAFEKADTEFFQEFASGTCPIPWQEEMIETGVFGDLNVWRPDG

GRK1, 2, and 5 and PKA = experiment: Ssel selectivity score calculated from inhibition of GRK1, 2, 5 and PKA; settings: selectivity score from inhibition of GRK1, 2, 5 and PKA; <0.5 selective
PKA = biological target: T3, PKA (Mus musculus, UniProt P05132); experiment: PKA inhibition assay (ADP-Glo, CREBtide, 100 μM ATP); assay type: biochemical
T3 construct: His tag (inferred from pET15b vector and Ni-NTA column) (N); host or cells: E. coli Rosetta(DE3)pLysS

GRK5 [2] = biological target: T4, GRK5 (Bos taurus, UniProt P43249); experiment: In vitro phosphorylation assay (tubulin, 5 μM ATP), GRK5; assay type: biochemical, bovine; settings: for IC50: read-out: GRK5 log IC50 (converted)
T4 construct: when using full-length kinases as the receptor[37] instead of isolated kinase domains; made in house
T4 sequence (P43249 whole entry, the tested form may be a part): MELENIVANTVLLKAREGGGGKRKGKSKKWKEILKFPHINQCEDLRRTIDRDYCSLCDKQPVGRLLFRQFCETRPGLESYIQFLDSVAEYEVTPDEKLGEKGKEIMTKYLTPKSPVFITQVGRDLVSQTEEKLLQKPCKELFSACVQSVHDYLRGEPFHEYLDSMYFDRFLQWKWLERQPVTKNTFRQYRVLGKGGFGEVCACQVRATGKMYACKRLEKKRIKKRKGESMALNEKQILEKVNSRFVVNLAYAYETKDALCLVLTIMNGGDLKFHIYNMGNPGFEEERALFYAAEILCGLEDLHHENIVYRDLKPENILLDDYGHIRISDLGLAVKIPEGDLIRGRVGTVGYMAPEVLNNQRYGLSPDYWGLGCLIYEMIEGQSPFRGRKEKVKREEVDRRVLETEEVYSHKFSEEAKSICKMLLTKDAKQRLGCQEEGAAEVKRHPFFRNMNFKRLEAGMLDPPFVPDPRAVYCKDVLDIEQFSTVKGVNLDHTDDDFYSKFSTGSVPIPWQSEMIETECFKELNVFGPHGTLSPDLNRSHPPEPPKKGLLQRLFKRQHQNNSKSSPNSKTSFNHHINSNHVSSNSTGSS

GRK5 [3] = biological target: T4, GRK5; experiment: DSF retest (confirmation), GRK5; assay type: binding, bovine; settings: for GRK5 Tm: 0.2 mg mL^–1 kinase; for GRK5 ΔTm: relative to intrinsic melting point of the kinase
bovine GRK5 = biological target: T5, bovine GRK5 (Bos taurus, UniProt P43249); experiment: Primary DSF inhibitor screen, GRK5; assay type: binding; settings: for rank in the primary screen, GRK5: rank ordering of compounds in primary DSF screen
T5 construct: when using full-length kinases as the receptor[37] instead of isolated kinase domains; made in house
T5 sequence (P43249 whole entry, the tested form may be a part): as above

GRK2 [4] = biological target: T6, GRK2 (Homo sapiens, UniProt P25098, S670A); experiment: DSF retest (confirmation), GRK2; assay type: binding; settings: for GRK2 Tm: 0.2 mg mL^–1 kinase; for GRK2 ΔTm: relative to intrinsic melting point of the kinase
T6 construct: made in house
T6 sequence (P25098 1-689 S670A): T1 sequence (P25098 1-689 S670A)

GRK1 [5] = biological target: T2, GRK1; experiment: In vitro phosphorylation assay (tubulin, 5 μM ATP), GRK1; assay type: biochemical, bovine; settings: for IC50: read-out: GRK1 log IC50 (converted)
protein kinase A (PKA) = biological target: T7, protein kinase A (PKA) (Mus musculus, UniProt P05132); experiment: DSF retest (confirmation), PKA; assay type: binding; settings: for PKA Tm: 0.2 mg mL^–1 kinase; for PKA ΔTm: relative to intrinsic melting point of the kinase
T7 construct: His tag (inferred from pET15b vector and Ni-NTA column) (N); host or cells: E. coli Rosetta(DE3)pLysS
Experimental: Fourteen compounds (Figure 1a–c), including all GRK2 hits except staurosporine, and the most stabilizing pyrrolopyrimidine-containing compounds were obtained from GSK and retested using DSF on GRKs representing each vertebrate subfamily (GRK1, 2, and 5) (Table 1). […] The ability of these compounds to shift the Tm of the related AGC family kinase member protein kinase A (PKA) was also assessed (Table 1). In no case was ΔTm greater for PKA than for one of the tested GRKs. […]. There was no correlation for GRK1 (Figure 2c).
DSF was conducted using a ThermoFluor plate reader (Johnson & Johnson) in a buffer containing 20 mM HEPES, pH 7.0, 5 mM MgCl2, 2 mM DTT, and 1 mM CHAPS with 0.2 mg mL^–1 final concentration of GRK or PKA and 100 μM 1-anilinonaphthalene-8-sulfonic acid.[14]

GRK2 [6] = biological target: T8, GRK2 (Bos taurus, UniProt P21146, S670A); experiment: In vitro phosphorylation assay (tubulin, 5 μM ATP), GRK2; assay type: biochemical, bovine; settings: for IC50: read-out: GRK2 log IC50 (converted)
T8 construct: made in house
T8 sequence (P21146 1-689 S670A): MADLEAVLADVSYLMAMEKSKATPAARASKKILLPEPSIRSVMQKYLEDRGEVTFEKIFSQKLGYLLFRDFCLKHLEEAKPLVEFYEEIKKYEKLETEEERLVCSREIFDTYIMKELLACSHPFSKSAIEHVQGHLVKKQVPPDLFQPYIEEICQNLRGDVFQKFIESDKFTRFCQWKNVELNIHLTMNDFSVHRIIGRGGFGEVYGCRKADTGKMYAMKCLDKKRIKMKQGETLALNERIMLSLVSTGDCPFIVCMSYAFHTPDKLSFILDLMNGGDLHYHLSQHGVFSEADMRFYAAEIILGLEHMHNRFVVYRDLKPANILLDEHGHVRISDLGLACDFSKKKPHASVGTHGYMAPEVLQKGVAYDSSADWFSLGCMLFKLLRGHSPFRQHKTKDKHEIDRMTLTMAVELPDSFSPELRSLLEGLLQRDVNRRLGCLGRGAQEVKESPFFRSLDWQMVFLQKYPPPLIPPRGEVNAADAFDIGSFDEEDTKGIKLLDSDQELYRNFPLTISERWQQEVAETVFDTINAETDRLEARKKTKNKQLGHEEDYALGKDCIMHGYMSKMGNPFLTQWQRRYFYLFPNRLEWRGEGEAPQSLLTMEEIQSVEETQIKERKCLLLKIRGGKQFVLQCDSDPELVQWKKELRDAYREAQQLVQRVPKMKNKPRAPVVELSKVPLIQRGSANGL

[7] = logarithm of IC50 (−3.3 corresponds to 0.5 mM, footnote c), 438 nM PKA, 100 μM ATP, CREBtide, read-out: PKA log IC50 (converted)
[8] = 10 μM compound, 2 μM kinase, relative to DMSO control, read-out: ΔTm, primary screen, GRK5

SMILES | inhibition pattern in kinase cross-screening, in words (224 kinases) | ΔTm, primary screen, GRK2 (human GRK2S670A) [°C] | ΔTm at 10 µM (human GRK2S670A) [°C] | rank in the primary screen, GRK2 (human GRK2S670A) | GRK1 Tm (GRK1 [1]) [°C] | GRK1 ΔTm (GRK1 [1]) [°C] | Ssel (GRK1, 2, and 5 and PKA) | IC50 (PKA; [7]) [µM] | IC50 (GRK5 [2]) [µM] | GRK5 fold (increase in potency relative to paroxetine) (GRK5 [2]) [fold] | GRK5 Tm (GRK5 [3]) [°C] | GRK5 ΔTm (GRK5 [3]) [°C] | ΔTm at 10 µM (bovine GRK5; [8]) [°C] | GRK2 Tm (GRK2 [4]) [°C] | GRK2 ΔTm (GRK2 [4]) | IC50 (GRK1 [5]) [µM] | GRK1 fold (increase in potency relative to paroxetine) (GRK1 [5]) [fold] | PKA Tm (protein kinase A (PKA)) [°C] | PKA ΔTm (protein kinase A (PKA)) [°C] | IC50 (GRK2 [6]) [µM] | also measured
CCn1c(-c2nonc2N)nc2c(C#CC(C)(C)O)nc(O[C@@H](CN)c3ccccc3)cc21 [GSK1007102B] | strong inhibition of many of the 221 kinases evaluated | 5.4 | 5.41 | 1 | 26.7 | 6.8 | 0.917 | 0.501 | 3.16 | 40 | 28.7 | 2.0 | 3.43 | 49.3 | 11.8 °C | 63.1 | 6 | 52.2 | 6.8 | 1 | IC50 against PKA, in words (PKA): nanomolar; GRK2 fold (increase in potency relative to paroxetine) (GRK2 [6]): 1.3 fold
CC1=C(C(=O)Nc2cc(Cl)c3[nH]ncc3c2)C(c2ccc(C(F)(F)F)cc2)CC(=O)N1 (centres unmarked) [GSK466317A] |  | 2.9 | 2.94 | 8 | 24.6 | 4.7 | 1.001 | 12.6 |  | 3.2 | 28.0 | 1.3 | 3.48 | 45.0 | 7.4 °C |  | 0 | 50.6 | 5.2 |  | number of other AGC kinases inhibited by more than 50% (224 kinases; at 1 μM): more than 10; IC50 (PKA; read-out: IC50 against PKA): < 100 µM; less potent than GSK180736A against GRK2 (GRK2 [6]; relative to GSK180736A): 2 log; GRK2 fold (increase in potency relative to paroxetine) (GRK2 [6]): 0.040 fold
CC(C)COC(=O)c1ccc2c(c1)/C(=C/Nc1ccc(S(N)(=O)=O)cc1)C(=O)N2 [GW416981X] | strong inhibition of many of the 221 kinases evaluated |  |  |  | 24.8 | 4.9 | 0.330 | > 501 | 25.1 | 5.0 | 28.7 | 2.0 | 6.71 | 40.4 | 2.8 °C | 1000 | 0 | 47.7 | 2.3 | > 1000 | rank in the primary screen, GRK5 (bovine GRK5; 10 μM compound): 15
CN(c1ccc(NC(=O)Nc2ccc(OC(F)(F)F)cc2)cc1)c1ccnc(Nc2cccc(S(N)(=O)=O)c2)n1 [GW806742X] | strong inhibition of many of the 221 kinases evaluated |  |  |  | 20.3 | 0.4 | 1.386 | > 501 | > 1000 |  | 27.1 | 0.4 |  | 36.4 | –1.1 °C | > 1000 |  | 45.6 | 0.2 | > 1000 | ΔTm, primary screen, GRK5 (bovine GRK5; 10 μM compound, 2 μM kinase, relative to DMSO control): 6.5 °C; rank in the primary screen, GRK5 (bovine GRK5; 10 μM compound): 16; ΔTm at 10 µM (bovine GRK5; read-out: ΔTm, primary screen, GRK5, 10 μM compound, 2 μM kinase, relative to DMSO control): 6.48 °C
